Tested on: 521955-158-R2-J5-PDC complex spheroid growth, % test/control
Assay: Anticancer human tumor 521955-158-R2-J5-PDC patient-derived pancreatic carcinoma cell line growth inhibition [Asc]
Details: for IC50: curve of first compound; for viability, T/C: stronger effect = lower value
Procedure, shortened: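 Complex solid-tumor spheroids incorporating human endothelial and mesenchymal stem cells received single agents or combinations over half-log dilution ranges anchored to clinical Cmax.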

[1] = second compound 0.03 µM, first compound 0.0316 µM
[2] = second compound 0.03 µM, first compound 0.1 µM
[3] = second compound 0.03 µM, first compound 0.316 µM
[4] = second compound 0.03 µM, first compound 1 µM
[5] = second compound 0.03 µM, first compound 3.16 µM
[6] = second compound 0.03 µM, first compound 10 µM
[7] = second compound 0.0949 µM, first compound 0.0316 µM
[8] = second compound 0.0949 µM, first compound 0.1 µM
[9] = second compound 0.0949 µM, first compound 0.316 µM
[10] = second compound 0.0949 µM, first compound 1 µM
[11] = second compound 0.0949 µM, first compound 3.16 µM
[12] = second compound 0.0949 µM, first compound 10 µM
[13] = second compound 0.3 µM, first compound 0.0316 µM
[14] = second compound 0.3 µM, first compound 0.1 µM
[15] = second compound 0.3 µM, first compound 0.316 µM
[16] = second compound 0.3 µM, first compound 1 µM
[17] = second compound 0.3 µM, first compound 3.16 µM
[18] = second compound 0.3 µM, first compound 10 µM
[19] = second compound 0.949 µM, first compound 0.0316 µM
[20] = second compound 0.949 µM, first compound 0.1 µM
[21] = second compound 0.949 µM, first compound 0.316 µM
[22] = second compound 0.949 µM, first compound 1 µM
[23] = second compound 0.949 µM, first compound 3.16 µM
[24] = second compound 0.949 µM, first compound 10 µM
[25] = second compound 3 µM, first compound 0.0316 µM
[26] = second compound 3 µM, first compound 0.1 µM
[27] = second compound 3 µM, first compound 0.316 µM
[28] = second compound 3 µM, first compound 1 µM
[29] = second compound 3 µM, first compound 3.16 µM
[30] = second compound 3 µM, first compound 10 µM
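Further: spheroids exposed to agents for 7 days before readout.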
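Wherever viability, T/C is given: 100% = DMSO vehicle control viability.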

With C#Cc1c(F)ccc2cc(O)cc(-c3ncc4c(N5CC6CCC(C5)N6)nc(OCC56CCCN5CC(F)C6)nc4c3F)c12 (stereo not given) + CCN1C(C(=O)NC23CCC(C(=O)O)(CC2)CC3)C(c2cccc(Cl)c2F)C2(C(=O)Nc3cc(Cl)ccc32)C12CCCCC2 the IC50 (second compound 0.03 µM) was less than 0.0316 µM, the IC50 (second compound 0.0949 µM) was less than 0.0316 µM and the IC50 (second compound 0.3 µM) was less than 0.0316 µM. It also gave an IC50 (second compound 0.949 µM) of less than 0.0316 µM, an IC50 (second compound 3 µM) of 4.99 µM and a viability, T/C [1] of 53%. For the same compound, the viability, T/C [2] was 41.6%, the viability, T/C [3] was 33.2% and the viability, T/C [4] was 35.1%. The viability, T/C [5] was 35.5%, the viability, T/C [6] was 32% and the viability, T/C [7] was 48.1%. The viability, T/C [8] was 39.8%, the viability, T/C [9] was 44.4% and the viability, T/C [10] was 38%. For the same compound, the viability, T/C [11] was 41.7%, the viability, T/C [12] was 43.9% and the viability, T/C [13] was 45.9%. It also gave a viability, T/C [14] of 44%, a viability, T/C [15] of 39.9% and a viability, T/C [16] of 40.4%. It also gave a viability, T/C [17] of 42.9%, a viability, T/C [18] of 39.2% and a viability, T/C [19] of 42.7%. For the same compound, the viability, T/C [20] was 50.6%, the viability, T/C [21] was 56.3% and the viability, T/C [22] was 41.1%. For the same compound, the viability, T/C [23] was 54.8%, the viability, T/C [24] was 42.4% and the viability, T/C [25] was 70.1%. The viability, T/C [26] was 68.9%, the viability, T/C [27] was 66% and the viability, T/C [28] was 59.1%. For the same compound, the viability, T/C [29] was 55.1% and the viability, T/C [30] was 43.8%.
C=C(F)C(=O)N1CCN(c2nc(OCC3CCCN3C)nc3c2CCN(c2cccc4cccc(Cl)c24)C3)CC1CC#N (stereo not given) + CCN1C(C(=O)NC23CCC(C(=O)O)(CC2)CC3)C(c2cccc(Cl)c2F)C2(C(=O)Nc3cc(Cl)ccc32)C12CCCCC2 gave an IC50 (second compound 0.03 µM) of 5.38 µM, an IC50 (second compound 0.0949 µM) of 5.58 µM and an IC50 (second compound 0.3 µM) of 6.04 µM. For the same compound, the IC50 (second compound 0.949 µM) was 6.7 µM, the IC50 (second compound 3 µM) was 6.81 µM and the viability, T/C [1] was 95.2%. For the same compound, the viability, T/C [2] was 95.1%, the viability, T/C [3] was 77.5% and the viability, T/C [4] was 85.2%. The viability, T/C [5] was 110%, the viability, T/C [6] was 0.26% and the viability, T/C [7] was 98%. It also gave a viability, T/C [8] of 103%, a viability, T/C [9] of 71.4% and a viability, T/C [10] of 91.5%. The viability, T/C [11] was 128%, the viability, T/C [12] was 0.27% and the viability, T/C [13] was 110%. For the same compound, the viability, T/C [14] was 98.2%, the viability, T/C [15] was 108% and the viability, T/C [16] was 113%. It also gave a viability, T/C [17] of 141%, a viability, T/C [18] of 0.27% and a viability, T/C [19] of 130%. It also gave a viability, T/C [20] of 95.8%, a viability, T/C [21] of 109% and a viability, T/C [22] of 112%. The viability, T/C [23] was 152%, the viability, T/C [24] was 12.7% and the viability, T/C [25] was 120%. The viability, T/C [26] was 154%, the viability, T/C [27] was 146% and the viability, T/C [28] was 137%. The viability, T/C [29] was 188% and the viability, T/C [30] was 0.35%.
With C=CC(=O)N1CCN(c2nc(=O)n(-c3c(C)ccnc3C(C)C)c3nc(-c4c(O)cccc4F)c(F)cc23)C(C)C1 (stereo not given) + CCN1C(C(=O)NC23CCC(C(=O)O)(CC2)CC3)C(c2cccc(Cl)c2F)C2(C(=O)Nc3cc(Cl)ccc32)C12CCCCC2 the IC50 (second compound 0.03 µM) was greater than 10 µM, the IC50 (second compound 0.0949 µM) was greater than 10 µM and the IC50 (second compound 0.3 µM) was greater than 10 µM. For the same compound, the IC50 (second compound 0.949 µM) was greater than 10 µM, the IC50 (second compound 3 µM) was greater than 10 µM and the viability, T/C [1] was 75.2%. For the same compound, the viability, T/C [2] was 67.4%, the viability, T/C [3] was 92.5% and the viability, T/C [4] was 113%. It also gave a viability, T/C [5] of 127%, a viability, T/C [6] of 98.3% and a viability, T/C [7] of 112%. The viability, T/C [8] was 107%, the viability, T/C [9] was 113% and the viability, T/C [10] was 116%. For the same compound, the viability, T/C [11] was 114%, the viability, T/C [12] was 105% and the viability, T/C [13] was 76.2%. It also gave a viability, T/C [14] of 110%, a viability, T/C [15] of 111% and a viability, T/C [16] of 122%. It also gave a viability, T/C [17] of 130%, a viability, T/C [18] of 91.2% and a viability, T/C [19] of 107%. The viability, T/C [20] was 110%, the viability, T/C [21] was 140% and the viability, T/C [22] was 130%. The viability, T/C [23] was 130%, the viability, T/C [24] was 90.2% and the viability, T/C [25] was 128%. It also gave a viability, T/C [26] of 135%, a viability, T/C [27] of 123% and a viability, T/C [28] of 141%. It also gave a viability, T/C [29] of 120% and a viability, T/C [30] of 112%.
With CNC(C)C(=O)NC1CN(S(=O)(=O)c2cccc(S(=O)(=O)N3CCC4CCC(C(=O)NC(c5ccccc5)c5ccccc5)N4C(=O)C(NC(=O)C(C)NC)C3)c2)CCC2CCC(C(=O)NC(c3ccccc3)c3ccccc3)N2C1=O (stereo not given) + CCN1C(C(=O)NC23CCC(C(=O)O)(CC2)CC3)C(c2cccc(Cl)c2F)C2(C(=O)Nc3cc(Cl)ccc32)C12CCCCC2 the IC50 (second compound 0.03 µM) was greater than 1 µM, the IC50 (second compound 0.0949 µM) was greater than 1 µM and the IC50 (second compound 0.3 µM) was greater than 1 µM. The IC50 (second compound 0.949 µM) was greater than 1 µM, the IC50 (second compound 3 µM) was greater than 1 µM and the viability, T/C (second compound 0.03 µM, first compound 0.00316 µM) was 141%. For the same compound, the viability, T/C (second compound 0.03 µM, first compound 0.01 µM) was 76.6%, the viability, T/C [1] was 86.4% and the viability, T/C [2] was 65.2%. It also gave a viability, T/C [3] of 66%, a viability, T/C [4] of 76% and a viability, T/C (second compound 0.0949 µM, first compound 0.00316 µM) of 111%. The viability, T/C (second compound 0.0949 µM, first compound 0.01 µM) was 95.8%, the viability, T/C [7] was 90.7% and the viability, T/C [8] was 101%. It also gave a viability, T/C [9] of 105%, a viability, T/C [10] of 115% and a viability, T/C (second compound 0.3 µM, first compound 0.00316 µM) of 120%. The viability, T/C (second compound 0.3 µM, first compound 0.01 µM) was 133%, the viability, T/C [13] was 84.3% and the viability, T/C [14] was 97.6%. The viability, T/C [15] was 94%, the viability, T/C [16] was 102% and the viability, T/C (second compound 0.949 µM, first compound 0.00316 µM) was 87.8%. For the same compound, the viability, T/C (second compound 0.949 µM, first compound 0.01 µM) was 102%, the viability, T/C [19] was 158% and the viability, T/C [20] was 116%. The viability, T/C [21] was 84.2%, the viability, T/C [22] was 106% and the viability, T/C (second compound 3 µM, first compound 0.00316 µM) was 166%. The viability, T/C (second compound 3 µM, first compound 0.01 µM) was 102%, the viability, T/C [25] was 141% and the viability, T/C [26] was 120%. The viability, T/C [27] was 151% and the viability, T/C [28] was 123%.
Cc1nc(N2CCC3(CC2)COC(C)C3N)c(CO)nc1Sc1ccnc(N)c1Cl (stereo not given) + CCN1C(C(=O)NC23CCC(C(=O)O)(CC2)CC3)C(c2cccc(Cl)c2F)C2(C(=O)Nc3cc(Cl)ccc32)C12CCCCC2 was tested, and the IC50 (second compound 0.03 µM) was 1.5 µM, the IC50 (second compound 0.0949 µM) was greater than 3 µM and the IC50 (second compound 0.3 µM) was 1.31 µM. It also gave an IC50 (second compound 0.949 µM) greater than 3 µM, an IC50 (second compound 3 µM) greater than 3 µM and a viability, T/C (second compound 0.03 µM, first compound 0.00949 µM) of 75.7%. The viability, T/C (second compound 0.03 µM, first compound 0.03 µM) was 75.9%, the viability, T/C (second compound 0.03 µM, first compound 0.0949 µM) was 65.8% and the viability, T/C (second compound 0.03 µM, first compound 0.3 µM) was 60.8%. For the same compound, the viability, T/C (second compound 0.03 µM, first compound 0.949 µM) was 47.5%, the viability, T/C (second compound 0.03 µM, first compound 3 µM) was 50.3% and the viability, T/C (second compound 0.0949 µM, first compound 0.00949 µM) was 88.3%. The viability, T/C (second compound 0.0949 µM, first compound 0.03 µM) was 95.6%, the viability, T/C (second compound 0.0949 µM, first compound 0.0949 µM) was 70.2% and the viability, T/C (second compound 0.0949 µM, first compound 0.3 µM) was 80.2%. The viability, T/C (second compound 0.0949 µM, first compound 0.949 µM) was 70.8%, the viability, T/C (second compound 0.0949 µM, first compound 3 µM) was 57.6% and the viability, T/C (second compound 0.3 µM, first compound 0.00949 µM) was 88.5%. The viability, T/C (second compound 0.3 µM, first compound 0.03 µM) was 87.1%, the viability, T/C (second compound 0.3 µM, first compound 0.0949 µM) was 71.2% and the viability, T/C (second compound 0.3 µM, first compound 0.3 µM) was 59.2%. It also gave a viability, T/C (second compound 0.3 µM, first compound 0.949 µM) of 62%, a viability, T/C (second compound 0.3 µM, first compound 3 µM) of 37.8% and a viability, T/C (second compound 0.949 µM, first compound 0.00949 µM) of 97.7%. For the same compound, the viability, T/C (second compound 0.949 µM, first compound 0.03 µM) was 87.8%, the viability, T/C (second compound 0.949 µM, first compound 0.0949 µM) was 85% and the viability, T/C (second compound 0.949 µM, first compound 0.3 µM) was 67.2%. The viability, T/C (second compound 0.949 µM, first compound 0.949 µM) was 68.1%, the viability, T/C (second compound 0.949 µM, first compound 3 µM) was 69.5% and the viability, T/C (second compound 3 µM, first compound 0.00949 µM) was 139%. The viability, T/C (second compound 3 µM, first compound 0.03 µM) was 122%, the viability, T/C (second compound 3 µM, first compound 0.0949 µM) was 101% and the viability, T/C (second compound 3 µM, first compound 0.3 µM) was 96.6%. It also gave a viability, T/C (second compound 3 µM, first compound 0.949 µM) of 90.6% and a viability, T/C (second compound 3 µM, first compound 3 µM) of 99%.

Reference: PubChem BioAssay AID1963430 (Molecular Pharmacology Branch, DTP, NCI, 2024)
